Here are results for one compound from patent US20190256827A1, “EPIGENOME EDITING SYSTEMS AND METHODS” (STC.UNM, priority 2017, published 2019).

The test system of test [1] is luciferase reporter gene (fos-Luc) in CHO cells. Description: ABA-induced luciferase expression using integrated CRISPR/CIP (PYL-VP80 / dCas9-NLS-ABI, fos-Luc reporter, sgRNAs). The following applies: CHO cells transfected for 24 hours; ABA 100 μM for 16 hours. The format is cell-based. The source says:
In one exemplary embodiment, ABA-induced ABI-PYL dimerization recruited a transcriptional activator to a DNA sequence targeted by sgRNAs and dCas9, and turn on the expression of a reporter gene. Several DNA plasmids were constructed for this purpose, including: (i) a DNA plasmid (PYL-VP80-ires-dCas9-NLS-ABI) encoding the transcriptional activator VP80 fused to PYL (PYL-VP80) and dCas9 with a nuclear localization signal (NLS) fused to ABI (dCas9-NLS-ABI); (ii) a luciferase reporter gene (fos-Luc) that contains the fos minimal promoter to give minimal background expression; and (iii) several sgRNA expression constructs to target the upstream region (within 1.5 kb) of the luciferase gene. […] Also, specific combinations of multiple sgRNAs increased the induced expression level. In other applications, the fold induction can be improved by optimizing the targeting region of sgRNAs, the combination of different sgRNAs, and/or the framework of fusion proteins, which may lead to a better positioning of the recruited transcription machinery relative to the transcription start site. […] Since histone posttranslational modifications are generally present in an expanded region instead of a specific location (e.g., a transcription start site), the precise positioning may not be as critical for epigenome editing.

Test [2] deals with MYOD1 locus in HEK293T cells. Put plainly: ChIP-qPCR of FLAG-ABI-P300 and H3K27Ac at the MYOD1 locus. Format: cell-based, human. The conditions noted are these: MYOD1 sgRNAs; ABA treatment for 48 hours.
Test [3] concerns MYOD1 mRNA in HEK293T cells. Put plainly: qPCR of MYOD1 mRNA levels. The conditions noted are these: MYOD1 sgRNAs; ABA vs DMSO. Format: cell-based, human. The protocol: To determine if the new method can be used to modify H3K27Ac at other gene loci, sgRNAs were designed that target the promoter region of other genes with low expression levels in HEK293T cells, including GRM2, HBA and MYOD1 (Table 1).
Human embryonic kidney cell HEK293T (American Type Culture Collection, Manassas, Va.) was cultured in Dulbecco's modified Eagle's medium (DMEM) (Gibco) with 10% FBS (Atlanta Biologicals), 1× GlutaMax (Gibco, Thermo Fisher Scientific, Inc., Waltham, Mass.), and 1× penicillin/streptomycin (Pen/Strep; Gibco, Thermo Fisher Scientific, Inc., Waltham, Mass.). Cells (100,000/ml) were plated in 24-well or 10-cm cell culture plate the day before transfection. […]
Total RNA was extracted using the EZNA Total RNA Kit I (Omega Bio-tek, Inc., Norcross, Ga.). qPCR reactions were performed on cDNA prepared from 1,000 ng of total cellular RNA using the High-Capacity cDNA Reverse Transcription Kit (Applied Biosystems Co., Thermo Fisher Scientific, Inc., Foster City, Calif.). […] Data were analyzed using the SDS software, version 2.4 (Applied Biosystems Co., Thermo Fisher Scientific, Inc., Foster City, Calif.), by the ΔΔCt method: the Ct values of target gene were normalized to Ct values of GAPDH, the folds of target gene expression changes were normalized to experimental controls. Analyzed data are reported as the mean±s.e.m. for biological replicates. […]

For the compound `CC1=CC(=O)CC(C)(C)[C@@]1(O)/C=C/C(C)=C\C(=O)O` [ABA, abscisic acid], in test [1], the luciferase expression result is on record as “luciferase expression was induced”. In test [2], the “enrichment of FLAG-ABI-P300 at the MYOD1 locus” value is listed as “causes the enrichment” and the “enrichment of H3K27Ac at the MYOD1 locus” value was “causes the enrichment”. Moreover, the “level of MYOD1 mRNA” value in test [3] is “increases correspondingly”.
